In patent US20200230207A1, “TREATMENT OF BONE GROWTH DISORDERS” (FONDAZIONE TELETHON, priority 2015, published 2020):
Square brackets hold non-standard residues; d marks the D form. Ends that are not written are not given here. Peptide text beside a SMILES is read from it. * marks the point of attachment. Cbz = O=C(OCc1ccccc1)*

Key:
[1] = tested on: growth plate chondrocytes; assay: LC3II in femoral growth plates after leupeptin injection; format: in vivo, mouse
Procedure: FIG. 9: a, Comparative TEM images of P0 and P6 wild type growth plate chondrocytes showing increased autophagosomes (AV) biogenesis at P6. Arrows indicate AVs. Bar graphs show number and size of AVs within 5.3 μm field of view (values represent mean±s.e.m. Student's t-test **p<0.005). b, Western blot analysis of LC3I/II of femoral growth plates from mice at indicated ages. Mice were injected with leupeptin (40 mg/kg i.p. 6h before sacrifice) where indicated. β-actin was used as loading control. Bar graphs show quantification of LC3II protein relative to β-actin (mean±s.e.m. *p<0.05 Student's t-test. n=3/group). c, Representative Western blot analysis of Atg7, LC3 and SQSTM1 (p62) proteins in Atg7 f/f, Col2a1-Cre; Atg7 f/f and Prx1-Cre; Atg7 f/f growth plate lysates. […]
FIG. 15: a, Representative images of high content imaging analysis of primary chondrocytes isolated from GFP-LC3 transgenic mice and treated with vehicle or FGF18 (25 ng /ml for 24 h). […] Scale bar 50 μm. b, Quantification of green vesicles (AVs) in cells treated with the indicated factors for 24h. Vesicles were counted in at least 1000 cells/treatment. […] Bar graphs show % of red vesicles (autolysosomes) and of total vesicles relative to vehicle (Values represent mean values±s.d. At least 10 cells/experiment were analyzed from 3 independent experiments. *p<0.05 ***p<0.0005. Student's t-test). […]

[2] = tested on: FGFR3ach and FGFR3TD chondrocytes; assay: LC3II in FGFR3 WT, FGFR3ach and FGFR3TD chondrocytes with lysosomal inhibitors; format: cell-based, rat; conditions: leupeptin 50 μM 2 h; bafilomycin 200 nM 4 h
Procedure: Bars graphs represent LC3II quantification relative to β-actin. […] Graphs show representative histograms.
Leupeptin and bafilomycin treatments: Leupeptin (Sigma) was resuspended in water at 10 mM. FGFR3 wild type, FGFR3ach and FGFR3TD stable chondrocytes cell line were treated with 50 μM leupeptin for 2 h at 37° C. Bafilomycin (Millipore) was resuspended in DMSO at 200 μM. FGFR3 wild type, FGFR3 ach and FGFR3TD stable chondrocytes cell line were treated with 200 nM bafilomycin for 4 h at 37° C.

GusbKO chondrocytes = assay: Protein degradation and mTORC1 signaling in GusbKO RCS chondrocytes with Mg132; format: cell-based, rat
Procedure: FIG. 23: G, WT and GusbKO RCS cells were pulse labelled for 18h with ^3H-Ser and chased for 48h in medium containing vehicle or 100 nM Mg-132. The rate of protein degradation is shown as the fraction of radiolabelled protein remaining over time. Values are expressed as mean (±s.e.m.) of n=3 independent experiments (Student's t-test, * p<0.05, ** p<0.005). H, Luminescent signal resulting from the cleavage of a luminescent Suc-LLVY peptide by the chymotrypsin-like activity of the proteasome was measured in WT and GusbKO RCS cells after 6h treatment with aminoacids. Data are representative of 3 independent experiments and are graphed as relative fluorescence units (RFU) (Student's t-test, * p<0.05). I, Western blot analysis of mTORC1 signaling in WT and GusbKO RCS cells treated with Mg-132 (10 μM) or DMSO (−) for 6h. Arrowheads indicate specific band. J, Bar graphs displaying quantification of relative phosphorylation. Values are expressed as mean (±s.e.m.) of n=3 independent experiments (Student's t-test, * p<0.05, ** p<0.005).

Rx chondrocytes [3] = assay: Procollagen (PC2) secretion and trafficking in Rx chondrocytes; format: cell-based, rat
Procedure: FIG. 6: a, b, Quantification of secreted PC2 in control and Spautin-1-treated (24 h, 50 μM) (a) and Atg7-knockdown (KD; b) RCS chondrocytes after ER block release of PC2 (min). Ctrl, control. Mean values (±standard deviation (s.d.)) of 3 independent experiments. ANOVA, P=5.29×10^−5 (a), P=0.007 (b); Sidak post-hoc test, […], ***P<0.0005. c, PC2 localization in Golgi area and ER (HSP47) in vehicle and Spautin-1-treated (24 h, 50 μM) RCS chondrocytes 10 min after the ER block release of PC2. Bar graph represents the percentage (±s.d.) of cells containing PC2 in the indicated cellular compartment. N=60; n=3 independent experiments. Student's t-test, **P<0.005. Scale bar, 10 μm. d, Immunofluorescence of PC2, Sec31 and GFP-LC3 in RCS chondrocytes. The insets show higher magnification and single colour channels of the boxed area. N, nucleus. The data are representative of 5 independent experiments. Scale bar, 5 μm. e, Spinning-disk confocal image of RCS chondrocytes co-expressing GFP-LC3- and mCherry-PC2-tagged proteins. Arrows show PC2 molecules sequestered by GFP vesicles. The data are representative of 3 independent experiments. Scale bar, 10 μm. f, Time-lapse stills of PC2 and LC3 from the boxed region in e.
The insets show a high magnification of selected areas. […] The insets show a high magnification of selected areas. Red=collagen; Blue=DAPI. Scale bar 10 μm.
FIG. 14: a a, Immunofluorescence staining of HSP47 chaperone (red) in Atg7^fl/fl and Atg7^fl/fl; Prx1-Cre chondrocytes, showing altered HSP47 distribution in Prx1-Cre; Atg7^fl/fl chondrocytes. The data are representative of 3 independent experiments. Insets show a higher magnification of the boxed area. Scale bar, 10 μm. Blue, DAPI. b, Co-localization of PC2 with HSP47 in growth-plate chondrocytes of mice with indicated genotypes. The data are representative of 3 independent experiments. Scale bar, 20 μm. c, Altered HSP47 and PC2 trafficking in Spautin-1-treated chondrocytes. HSP47 and PC2 immunostaining in control (vehicle) or Spautin-1-treated RCS chondrocytes. Synchronized PC2 secretion was obtained after incubating chondrocytes for 3 h at 40° C. to block PC2 in the ER, and then shifting the temperature to 32° C. (ER block release) for 10 min. The data are representative of 2 independent experiments. Scale bar, 10 μm. d, Proposed model of autophagy function in chondrocytes. Autophagy in chondrocytes prevents PC2 aggregation and maintains ER homeostasis during the process of PC2 secretion. e, Confocal analysis of GFP-LAMP1 (green) and mCherry-PC2 (red) in vehicle- and Spautin-1-treated chondrocytes at the indicated time points (min) after the ER block release. The insets show a high magnification of the selected area. Scale bar, 5 μm. f, Quantification of GFP-LAMP1/mCherry-PC2 co-localization. Values represent mean±s.d. from three independent experiments. N=30. […] The data are representative of 2 independent experiments. Scale bar, 10 μm.
Live cell imaging: Rx chondrocytes were reverse transfected and plated in Mattek glass bottomed dishes. Collagen transport assays were performed by incubating cells at 40° C. on the heated stage for 2.5 h. Collagen release was initiated by lowering the temperature of the stage to 32° C. and medium being supplemented with 50 μg/ml ascorbate.
Procollagen secretion assay: To follow PC2 secretion in Rx chondrocytes, cells were pretreated ON with ascorbate (100 μg/ml) in DMEM without FCS. […]

[4] = tested on: primary chondrocytes isolated from GFP-LC3 mice; assay: High content GFP-LC3 vesicle count in primary chondrocytes; format: cell-based, mouse; conditions: in the presence of BafA1, 25 ng/ml for 24 h
Procedure: (§1) FIG. 15: a, Representative images of high content imaging analysis of primary chondrocytes isolated from GFP-LC3 transgenic mice and treated with vehicle or FGF18 (25 ng /ml for 24 h). BafA1 was used where indicated for 4 h (200 nM). Green spots represent GFP labeled AVs. Scale bar 50 μm. b, Quantification of green vesicles (AVs) in cells treated with the indicated factors for 24h. Vesicles were counted in at least 1000 cells/treatment. […] Bar graphs show % of red vesicles (autolysosomes) and of total vesicles relative to vehicle (Values represent mean values±s.d. At least 10 cells/experiment were analyzed from 3 independent experiments. *p<0.05 ***p<0.0005. Student's t-test). […] Quantification of data (mean±s.e.m of n=5 mice/group. *p<0.05, Student's t-test) f, Western blot analysis of Fgf18+/+ and Fgf18+/− growth plate lysates. […]
High content screening analysis in GFP-LC3 primary chondrocytes: Primary chondrocytes were plated in CellCarrier-96 Black plates (6005558, Perkin Elmer). […] To carry out the analysis the number of cytoplasmic GFP-LC3 spots in the cytoplasm of Col2 positive cells were counted, and expressed per cell. Levels of colocalization between GFP-LC3 and Col2a1 were assessed and expressed as %, using the parameters: area of colocalization of red spots with area of green spots normalized to total area of green spots. […]

Rx chondrocytes [5] = assay: Tandem mRFP-EGFP-LC3 autophagic flux in Rx chondrocytes; format: cell-based, rat; conditions: 25 ng/ml for 24 h
Procedure: as §1, with “cells/treatment. Values represent mean values±s.d. of n=3 independent experiments; Statistical analysis was performed using repeated measure ANOVA with TUKEYs post-hoc test. **p<0.005. c, Western blot analysis of primary chondrocytes isolated from wild type mice treated as indicated (FGF18 25 ng/ml, 24 h). Where indicated BafA1 was added (200 nM, 4h).” for “cells/treatment.”

VPS34-Beclin 1 complex = assay: Bcl2 phosphorylation, Beclin 1 co-immunoprecipitation and PI3K assay in Rx chondrocytes; format: cell-based, rat; conditions: 25 ng/ml
[6] = tested on: rat model of osteoarthritis; conditions: intra articular injection; cited from earlier work
MPSVI mice = assay: Femur and tibia lengths in MPSVI mice; format: in vivo, mouse; conditions: 2 mg/kg i.p. daily for 15 days, P15
Procedure: (§2) Control mice were injected with vehicle only. Mice were sacrificed after 15 (P15) and 30 (P30) days.
(§3) Skeletal staining: Skeletons were fixed in 95% ethanol overnight (ON) and stained with alcian blue and alizarin red according to standardized protocols (http://empress.har.mrc.ac.uk/browser/). Three to five mice of each genotype were analyzed per stage. Measurement of bone length was performed using ImageJ software.

MPSVII mice [7] = assay: Femur and tibia lengths in MPSVII mice; format: in vivo, mouse; conditions: 2 mg/kg i.p. daily, P15 and P30
Procedure: as §2, §3

MPSVII mice [8] = assay: Growth plate histology, BrDU index and collagen in MPSVII mice; format: in vivo, mouse; conditions: 2 mg/kg i.p. daily, P15
[9] = synchronized PC2 secretion, 24 h, 50 μM

## CC(=O)N[C@@H](CC(C)C)C(=O)N[C@@H](CC(C)C)C(=O)N[C@H](C=O)CCCNC(=N)N [Leupeptin]
[1]; 40 mg/kg i.p. 6h before sacrifice, P2 and P6
  LC3II levels in the growth plate of wild type mice: further increased the levels of LC3II in the growth plate of P6 but not P2 mice
[1]; 40 mg/kg i.p. 6 h before sacrifice, P6
  LC3II levels in the growth plate of control and Fgf18+/- mice: significantly increased LC3II levels in the growth plate of P6 control but not in Fgfl 8 mice
[2]
  level of LC3II protein compared to FGFR3 wild type stable cells: did not increase

## CC(C)C[C@@H](C=O)NC(=O)[C@H](CC(C)C)NC(=O)[C@H](CC(C)C)NC(=O)OCc1ccccc1 [Mg132] (Cbz-Leu-Leu-Leu-aldehyde)
GusbKO chondrocytes; 100 nM, 48h chase
  increased protein degradation rate of GusbKO chondrocytes: completely blunted
GusbKO chondrocytes; 10 μM, 6h
  mTORC1 signaling: normalized

## Fc1ccc(CNc2ncnc3ccc(F)cc23)cc1 [Spautin-1]
Rx chondrocytes [3]; Spautin-1 24h added to FGF18-stimulated cells
  FGF18-induced increase of PC2 secretion: hampered this increase
Rx chondrocytes [3]; cultured chondrocytes
  ER to cis-Golgi trafficking of HSP47: inhibited
Rx chondrocytes [3]; [9]
  PC2 localization in the ER: retention of PC2 in the ER
  PC2 secretion: defective PC2 secretion

## FGF18: fibroblast growth factor 18 (Peprotech)
[4]
  AV number (autophagosome biogenesis): increase significantly
Rx chondrocytes [5]
  autophagic flux (autolysosome number): enhanced
Rx chondrocytes [3]; FGF18 25 ng/ml
  efficiency of PC2 secretion compared to non-stimulated cells: higher efficiency
VPS34-Beclin 1 complex; 2h
  interaction of Beclin 1-Bcl2: decreased
VPS34-Beclin 1 complex; 2 h, JNK dependent
  VPS34-Beclin 1 complex activity (PI3P levels produced): increases
VPS34-Beclin 1 complex; 2h, JNK-dependent
  phosphorylation of Bcl-2: increases
[6]
  repair of damaged cartilage: can stimulate the repair of damaged cartilage

## RRRQRRKKRGYGGTGFEGDHWIEFTANFVNT ([dR][dR][dR][dQ][dR][dR][dK][dK][dR]G[dY]GG[dT]G[dF][dE]G[dD][dH][dW][dI][dE][dF][dT][dA][dN][dF][dV][dN][dT]; also: retro-inverso)
MPSVI mice
  femoral and tibial growth retardation: rescues
MPSVII mice [7]
  femoral and tibial growth retardation: rescues
MPSVII mice [8]
  collagen levels in femoral and tibia cartilages: normalizes
  growth plate differentiation and proliferation defects: normalizes

## bafilomycin
[2]
  level of LC3II protein compared to FGFR3 wild type stable cells: did not increase
